# In patent US9884065B2, “Inhibiting activity of senescent cells using a glucocorticoid” (Buck Institute for Research on Aging, priority 2011, dated 2018):
# Columns and labels:
# [1] = system: IL-6; assay: IL-6 ELISA, HCA2 cells induced to senesce by oncogenic RAS or MKK6 overexpression; type: cell-based, human; conditions: 500 nM corticosterone, 100 nM cortisol, 6 days
# Method: (FIG. 12A) Senescent X-irradiated with 10 Gy (Sen (XRA)) HCA2 fibroblasts were incubated in medium plus 10% serum containing the indicated concentrations of corticosterone or the highest concentration of DMSO (vehicle control). The cells were given corticosterone or DMSO immediately after irradiation and analyzed 6 days later. The cells were washed and incubated in serum-free medium without corticosterone to generate conditioned media. Conditioned media from pre-senescent (Pre) and control or corticosterone-treated Sen (XRA) cells were analyzed by ELISA for IL-6. (FIG. 12B) Cells were treated, and conditioned media were generated and analyzed as described in (FIG. 12A) except cortisol was used at the indicated concentrations. (FIG. 12C) Conditioned media were collected from presenescent (PRE) or senescent (XRA) cells that were treated with DMSO, corticosterone ([…]), or cortisol (100 nM) as described in (FIG. 12A). The conditioned media were analyzed by antibody arrays. Average signal from PRE and XRA DMSO cells was used as the baseline. Signals higher than baseline are light gray (see +1 on scale to right); signals lower than baseline are dark gray as illustrated by PRE DMSO (see −1 on scale at right). […]
# Conditioned media were filtered and stored at −80° C. Cell numbers were determined in every experiment. […] Data were normalized and expressed as pg/ml/cell/24 h.
# [2] = system: Sen (XRA) HCA2 cells; assay: Senescent phenotypes of Sen (XRA) HCA2 cells (SA-Bgal, BrdU labeling, 53BP1 foci); type: cell-based, human; conditions: 500 nM corticosterone or 100 nM cortisol, 7 days
# Method: Conditioned media from presenescent (Pre) and the control and glucocorticoid-treated Sen (XRA) cells were analyzed by ELISA for IL-6. […] The percentage of presenescent (Pre) and Sen (XRA) cells that express SA-Bgal were scored (upper panel). A representative field corresponding to each condition is also shown (bottom panels). […] The percentage of cells with >2 53BP1 nuclear foci was determined using CELL PROFILER software. At least 200 cells were analyzed per condition.
# HCA2 human neonatal foreskin, IMR-90 human fetal lung fibroblasts and T47D human breast cancer cells were obtained and cultured in 3% O2 and 10% CO2 as previously described (Coppe et al., 2008, PLoS Biol. 6:2853-2868; Rodier et al., 2009, Nature Cell Biol. 11:973-979; Coppe et al., 2010, PLoS ONE 5:e9188). Cells were induced to senesce by X-irradiation (10 Gy) or lentiviral expression of oncogenic RAS or MAP kinase kinase 6 (MKK6), as described (Coppe et al., 2008, PLoS Biol. 6:2853-2868; Rodier et al., 2009, Nature Cell Biol. 11:973-979; Freund et al., 2011, EMBO J. 30:1536-1548). Pre-senescent and senescent cells had 24-h BrdU labeling indices of >75% and <10% respectively (Rodier et al., 2009, Nature Cell Biol. 11:973-979); <10% and >70% respectively stained positive for senescence-associated beta-galactosidase activity (Dimri et al., 1995, Proc. Natl. Acad. Sci. USA 92:9363-9367) (Biovision senescence detection kit). HEK293FT packaging cells (Invitrogen) were used to generate lentiviruses. Corticosterone, cortisol and RU-486 were obtained from Sigma-Aldrich.
# [3] = system: SASP factor mRNA; assay: Real-time quantitative PCR of transcripts in HCA2 cells (normalized to tubulin); type: cell-based, human; conditions: 500 nM corticosterone or 100 nM cortisol; for IL-6, IL-8, MMP-3 mRNA levels: senescent X-irradiated HCA2 cells
# Excerpt: Cells (7,500/well) in 96-well plates were lysed and reverse transcribed using the Cells-To-Ct kit (Ambion).
# [4] = target: T1, mineralocorticoid receptor (Homo sapiens, UniProt P08235); assay: Immunostaining for mineralocorticoid receptor localization in HCA2 cells; conditions: 500 nM corticosterone or 100 nM cortisol, 1 or 7 days
# T1 sequence (P08235 1-984): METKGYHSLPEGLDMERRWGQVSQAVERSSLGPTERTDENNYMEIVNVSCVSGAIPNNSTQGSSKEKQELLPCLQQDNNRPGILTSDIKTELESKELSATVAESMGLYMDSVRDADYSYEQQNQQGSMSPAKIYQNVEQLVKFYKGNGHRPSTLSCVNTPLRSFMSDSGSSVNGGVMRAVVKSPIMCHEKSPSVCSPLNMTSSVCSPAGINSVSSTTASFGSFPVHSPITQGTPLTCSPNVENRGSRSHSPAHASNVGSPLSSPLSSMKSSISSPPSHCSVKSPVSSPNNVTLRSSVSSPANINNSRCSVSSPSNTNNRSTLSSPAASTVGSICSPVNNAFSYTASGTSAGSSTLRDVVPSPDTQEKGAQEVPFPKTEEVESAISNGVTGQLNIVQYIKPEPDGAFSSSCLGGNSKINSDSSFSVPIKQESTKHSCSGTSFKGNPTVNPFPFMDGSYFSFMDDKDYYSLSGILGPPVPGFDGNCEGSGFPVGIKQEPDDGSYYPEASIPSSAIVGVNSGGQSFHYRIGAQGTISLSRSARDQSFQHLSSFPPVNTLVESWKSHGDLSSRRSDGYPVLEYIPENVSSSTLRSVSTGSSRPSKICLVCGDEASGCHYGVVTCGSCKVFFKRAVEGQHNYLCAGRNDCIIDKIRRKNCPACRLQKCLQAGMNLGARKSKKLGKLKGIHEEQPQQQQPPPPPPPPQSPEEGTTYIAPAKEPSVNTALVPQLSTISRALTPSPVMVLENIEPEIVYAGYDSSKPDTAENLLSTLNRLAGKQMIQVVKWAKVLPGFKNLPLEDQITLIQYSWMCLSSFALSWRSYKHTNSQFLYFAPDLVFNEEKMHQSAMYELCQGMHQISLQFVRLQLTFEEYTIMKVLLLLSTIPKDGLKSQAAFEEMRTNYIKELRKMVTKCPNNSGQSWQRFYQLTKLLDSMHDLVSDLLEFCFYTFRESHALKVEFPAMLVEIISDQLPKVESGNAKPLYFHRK
Compound,suppression of senescence-associated IL-6 secretion [1],fraction of cells that expressed SA-Bgal [2],number of persistent DNA damage foci (53BP1) [2],senescence growth arrest (24 h BrdU labeling index) [2],GR mRNA levels [3],IκBα mRNA levels [3],"IL-6, IL-8, MMP-3 mRNA levels [3]",mineralocorticoid receptor localization [4]
C[C@]12C[C@H](O)[C@H]3[C@@H](CCC4=CC(=O)CC[C@@]43C)[C@@H]1CC[C@@H]2C(=O)CO [corticosterone],effective,no effect on the fraction of cells that expressed SA-Bgal,no effect on the number of persistent DNA damage foci,maintained their low 24 h BrdU labeling index,unaffected by glucocorticoid addition,no effect on IκBα mRNA levels,strongly reduced,remained cytoplasmic
C[C@]12CCC(=O)C=C1CC[C@@H]1[C@@H]2[C@@H](O)C[C@@]2(C)[C@H]1CC[C@]2(O)C(=O)CO [cortisol],effective,no effect on the fraction of cells that expressed SA-Bgal,no effect on the number of persistent DNA damage foci,maintained their low 24 h BrdU labeling index,unaffected by glucocorticoid addition,no effect on IκBα mRNA levels,strongly reduced,remained cytoplasmic
